Among the data in patent US20250304990A1, “HERBICIDE RESISTANCE” (SYNGENTA CROP PROTECTION AG, priority 2021, published 2025) are Average percentage damage, tolerance to herbicide and percentage of damage values, retold here.

Format in all cases: in vivo
Assay [1] concerns D4291 (WT Arabidopsis thaliana HST) containing tobacco plant. In words: Herbicide damage score after spraying, Example 3. The settings on record: for Average percentage damage: D4291, mutation n.a., averaged across transgenic population; for tolerance to herbicide: overexpression of Arabidopsis HST gene (SEQ ID NO.14) in tobacco. The method, then:
(§1) In order to determine if the newly discovered mutations detailed in Example 1 confer resistance to HST inhibiting compounds when expressed in plants, GM tobacco lines are to be produced and tested with HST inhibiting compounds. Transgenic tobacco plants expressing the Arabidopsis HST gene with and without mutations were tested.
(§2) Populations of transgenic tobacco comprising 20-30 transgenic events per plant transformation constructs were generated as described in Example 2. These lines were clonally propagated and 1 clone per event was sprayed with 500, 100 or 50 g ai/ha of compound 1+0.2% Genapol X080 with a spray volume of 200 L/Ha (“g ai/ha” refers to grams of active compound per hectare).
(§3) Herbicidal damage was visually assessed across the population and a herbicide damage score given at 7 and 14 days. A score of 0 indicates no visible damage or stunting whereas a score of 100 indicates a complete death of the plant. 20 transgenic events (i.e. individual transgenic plants) from each GM tobacco line were transplanted to soil 1 week prior to spraying with HST inhibiting compounds. WT tobacco was included as a control.
(§4) The values in Tables 8 to 14 below refer to percentage of damage to the tested plants and show the damage scores for 20 populations of plants expressing either Arabidopsis WT HST gene (SEQ ID NO. 14), the Arabidopsis HST mutated gene according to SEQ ID NO. 27, the Arabidopsis HST mutated gene according to SEQ ID NO. 28, the Arabidopsis HST mutated gene according to SEQ ID NO. 29, the Arabidopsis HST mutated gene according to SEQ ID NO. 30, or the Arabidopsis HST mutated gene according to SEQ ID NO. 31. A control population of wild-type Samsun tobacco was also assessed for herbicide damage. […] However the mutated versions of the HST gene carrying the F276I, V277A, F280I or F280L mutations (SEQ ID NOs: 27, 28, 30 or 31) clearly display increased tolerance.

In assay [2] the test system is D4292 (F276I mutant Arabidopsis thaliana HST) containing tobacco plant. The assay is described as follows: Herbicide damage score after spraying, Example 3. The settings on record: averaged across transgenic population. As for the experimental part:
as §1, §2, §3, §4

In assay [3] the test system is D4293 (V277A mutant Arabidopsis thaliana HST) containing tobacco plant. The assay is described as follows: Herbicide damage score after spraying, Example 3. Particulars: averaged across transgenic population. The method, then: as §1, §2, §3, §4
Assay [4] relates to D4294 (T278N mutant Arabidopsis thaliana HST) containing tobacco plant. The assay is described as follows: Herbicide damage score after spraying, Example 3. Particulars: for percentage of damage: D4294 AraHST V003 T278N, per GM event; for Average percentage damage: D4294 T278N, averaged across transgenic population. The method, then: as §1, §2, §3, §4
In assay [5] the test system is D4295 (F280I mutant Arabidopsis thaliana HST) containing tobacco plant. The assay is described as follows: Herbicide damage score after spraying, Example 3. The settings on record: averaged across transgenic population. As for the experimental part:
as §1, §2, §3, §4

Assay [6] relates to WT tobacco. In words: Herbicide damage score after spraying, Example 3. Particulars: WT tobacco control, per plant. The method, then:
as §1, §2, §3, §4

In assay [7] the test system is D4424 (WT Oryza sativa HST) containing tobacco plant. The assay is described as follows: Herbicide damage score after spraying, Example 4. Particulars: for Average percentage damage: D4424, mutation n.a., averaged across transgenic population; for tolerance to herbicide: overexpression of Oryza sativa HST gene (SEQ ID NO.18) in tobacco. As for the experimental part:
(§5) In order to determine if the newly discovered mutations detailed in Example 1 confer resistance to HST inhibiting compounds when expressed in plants, GM tobacco lines were produced and tested with HST inhibiting compounds. Transgenic tobacco plants expressing the Oryza sativa HST gene with and without mutations were tested.
(§6) Populations of transgenic tobacco comprising 20-30 transgenic events per plant transformation constructs were generated as described in Example 2. These lines were clonally propagated and 1 clone per event was sprayed with 500, 100 or 50 g ai/ha of compound 1+0.2% (w/v) Genapol X080 with a spray volume of 200 L/Ha. (“g ai/ha” refers to grams of active compound per hectare).
(§7) Herbicidal damage was visually assessed across the population and a herbicide damage score given at 7 and 14 days. A score of 0 indicates no visible damage or stunting whereas a score of 100 indicates a complete death of the plant. 20 transgenic events (i.e. individual transgenic plants) from each GM tobacco line were transplanted to soil 1 week prior to spraying with HST inhibiting compounds. WT tobacco was included as a control. The mutated genes are identified in Table 16 below.
(§8) The values in Tables 17 to 23 below refer to percentage of damage to the tested plants and show the damage scores for 20 populations of plants expressing either Oryza sativa WT HST gene (SEQ ID NO. 18), the Oryza sativa HST mutated gene according to SEQ ID NO. 47, the Oryza sativa HST mutated gene according to SEQ ID NO. 48, the Oryza sativa HST mutated gene according to SEQ ID NO. 49, the Oryza sativa HST mutated gene according to SEQ ID NO. 50, or the Oryza sativa HST mutated gene according to SEQ ID NO. 51. A control population of wild-type Samsun tobacco was also assessed for herbicide damage. […] However the mutated versions of the HST gene carrying the F262I, V263A, […], or F266L mutations (SEQ ID NOs: 47, 48, 50 or 51) clearly display increased tolerance.

The subject of assay [8] is D4425 (F262I mutant Oryza sativa HST) containing tobacco plant. The assay is described as follows: Herbicide damage score after spraying, Example 4. The settings on record: averaged across transgenic population. As for the experimental part: as §5, §6, §7, §8
Assay [9] deals with D4426 (V263A mutant Oryza sativa HST) containing tobacco plant. The assay is described as follows: Herbicide damage score after spraying, Example 4. The settings on record: for Average percentage damage: D4426 V263A, averaged across transgenic population. The method, then: as §5, §6, §7, §8
Assay [10] has as its system D4427 (T264N mutant Oryza sativa HST) containing tobacco plant. The assay is described as follows: Herbicide damage score after spraying, Example 4. Particulars: for percentage of damage: D4427 OsHST V003 T264N, per event; for Average percentage damage: D4427 T264N, averaged across transgenic population. As for the experimental part: as §5, §6, §7, §8
Assay [11] has as its system D4428 (F266I mutant Oryza sativa HST) containing tobacco plant. The assay is described as follows: Herbicide damage score after spraying, Example 4. The settings on record: averaged across transgenic population. The method, then:
as §5, §6, §7, §8

Assay [12] has as its system D4429 (F266L mutant Oryza sativa HST) containing tobacco plant. The assay is described as follows: Herbicide damage score after spraying, Example 4. The settings on record: averaged across transgenic population. As for the experimental part: as §5, §6, §7, §8
Assay [13] deals with WT tobacco. The assay is described as follows: Herbicide damage score after spraying, Example 4. The settings on record: WT tobacco (Example 4), per plant. As for the experimental part:
as §5, §6, §7, §8

SMILES strings stand for the structures. Several values for one entry are separate records, joined by “and”; a condition that tells them apart may be missing. Equal values may be shown once.

Consider `Cc1nn(C)c(=O)c(-c2c(F)ccc(Cl)c2CCc2ccnc(F)c2)c1O` [B5a, 4-[3-chloro-6-fluoro-2-[2-(2-fluoro-4-pyridyl)ethyl]phenyl]-5-hydroxy-2,6-dimethyl-pyridazin-3-one], for which the Average percentage damage in [1] (T2 B5a 100 gai/ha) was determined as 89%; in assay [2] (T2 B5a 100 gai/ha), 45%; in assay [3] (T2 B5a 100 gai/ha), 28%; in assay [4] (T2 B5a 100 gai/ha) it was 96%; in [5] (T2 B5a 100 gai/ha) it was 60%; in assay [7] (T2 B5a 100 gai/ha) it was 93%. Further, the Average percentage damage in [8] (T2 B5a 100 gai/ha) is recorded as 69%; in assay [9] (T2 B5a 100 gai/ha) it was 22%; in assay [10] (T2 B5a 100 gai/ha) it was 96%; in [11] (T2 B5a 100 gai/ha), 75%; in [12] (T2 B5a 100 gai/ha), 42%. The tolerance to herbicide entry in assay [1] and in [7] was “does not increase tolerance” each time. The percentage of damage in assay [4] (T2 B5a 100 gai/ha) was 100% and 95% and 90% and 99%; in [6] (T2 B5a 100 gai/ha), 95% and 90% and 85%; in assay [7] (T2 B5a 100 gai/ha, D4424 pBin TMV OsHST, per event), 90% and 96% and 95% and 97% and 98% and 85% and 80%; in assay [10] (T2 B5a 100 gai/ha), 95% and 98% and 80% and 97% and 96% and 99% and 100%; in assay [13] (T2 B5a 100 gai/ha), 90% and 95%.
Regarding `Cc1nn(C)c(=O)c(-c2c(F)ccc(Cl)c2CCc2cnn(C)c2)c1O` [B5b, 4-[3-chloro-6-fluoro-2-[2-(1-methylpyrazol-4-yl)ethyl]phenyl]-5-hydroxy-2,6-dimethyl-pyridazin-3-one], the Average percentage damage in assay [1] (T3 B5b 100 gai/ha) was 47%; in [2] (T3 B5b 100 gai/ha), 26%; in assay [3] (T3 B5b 100 gai/ha), 15%; in assay [4] (T3 B5b 100 gai/ha), 95%; in assay [5] (T3 B5b 100 gai/ha), 29%; in assay [7] (T3 B5b 100 gai/ha), 82%. In addition, the Average percentage damage in [8] (T3 B5b 100 gai/ha) is 36%; in assay [9] (T3 B5b 100 gai/ha) it was 4%; in [10] (T3 B5b 100 gai/ha) it was 96%; in assay [11] (T3 B5b 100 gai/ha), 34%; in assay [12] (T3 B5b 100 gai/ha) it was 18%. Also, the tolerance to herbicide entry in assay [1] and in assay [7] was “does not increase tolerance” each time. Further, the percentage of damage was 100% and 75% and 95% and 98% and 99% and 90% in [4] (T3 B5b 100 gai/ha); 90% and 95% in assay [6] (T3 B5b 100 gai/ha); 5% and 0% and 10% and 3% in assay [9] (T3 B5b 100 gai/ha, D4426 OsHST V002 V263A, per event); 96% and 98% and 95% and 97% and 99% and 90% in assay [10] (T3 B5b 100 gai/ha); 95% and 96% and 97% and 93% and 90% in assay [13] (T3 B5b 100 gai/ha).
`Cc1nc2ccc(CCc3c(Cl)ccc(F)c3-c3c(O)c(C)nn(C)c3=O)cc2o1` [B8a, 4-[3-chloro-6-fluoro-2-[2-(2-methyl-1,3-benzoxazol-6-yl)ethyl]phenyl]-5-hydroxy-2,6-dimethyl-pyridazin-3-one]: the Average percentage damage in assay [1] (T4 B8a 50 gai/ha) turned out to be 64%; in assay [2] (T4 B8a 50 gai/ha), 33%; in assay [3] (T4 B8a 50 gai/ha), 16%; in assay [4] (T4 B8a 50 gai/ha), 90%; in [5] (T4 B8a 50 gai/ha), 30%; in [7] (T4 B8a 50 gai/ha), 36%. For the same compound, the Average percentage damage came to 28% in assay [8] (T4 B8a 50 gai/ha); 14% in assay [9] (T4 B8a 50 gai/ha); 46% in assay [10] (T4 B8a 50 gai/ha); 27% in [11] (T4 B8a 50 gai/ha); 22% in assay [12] (T4 B8a 50 gai/ha). In addition, the tolerance to herbicide entry in assay [1] and in assay [7] was “does not increase tolerance” throughout. Further, the percentage of damage is 85% and 95% and 90% in [6] (T4 B8a 50 gai/ha); 95% and 96% in assay [13] (T4 B8a 50 gai/ha).
